Reference: PMC8431370, “The Second-Generation PIM Kinase Inhibitor TP-3654 Resensitizes ABCG2-Overexpressing Multidrug-Resistant Cancer Cells to Cytotoxic Anticancer Drugs” (International Journal of Molecular Sciences, 2021)

Columns and labels:
[1] = target: T1, ATP-binding cassette (ABC) subfamily G member 2 (ABCG2) (Homo sapiens, UniProt Q9UNQ0); assay: flow cytometry inhibition of pheophorbide A efflux in ABCG2-transfected HEK293 cells (also S1-M1-80 and H460-MX20); assay type: cell-based
T1 construct: ABCG2-transfected R482-HEK293 cells
T1 sequence (Q9UNQ0 1-655): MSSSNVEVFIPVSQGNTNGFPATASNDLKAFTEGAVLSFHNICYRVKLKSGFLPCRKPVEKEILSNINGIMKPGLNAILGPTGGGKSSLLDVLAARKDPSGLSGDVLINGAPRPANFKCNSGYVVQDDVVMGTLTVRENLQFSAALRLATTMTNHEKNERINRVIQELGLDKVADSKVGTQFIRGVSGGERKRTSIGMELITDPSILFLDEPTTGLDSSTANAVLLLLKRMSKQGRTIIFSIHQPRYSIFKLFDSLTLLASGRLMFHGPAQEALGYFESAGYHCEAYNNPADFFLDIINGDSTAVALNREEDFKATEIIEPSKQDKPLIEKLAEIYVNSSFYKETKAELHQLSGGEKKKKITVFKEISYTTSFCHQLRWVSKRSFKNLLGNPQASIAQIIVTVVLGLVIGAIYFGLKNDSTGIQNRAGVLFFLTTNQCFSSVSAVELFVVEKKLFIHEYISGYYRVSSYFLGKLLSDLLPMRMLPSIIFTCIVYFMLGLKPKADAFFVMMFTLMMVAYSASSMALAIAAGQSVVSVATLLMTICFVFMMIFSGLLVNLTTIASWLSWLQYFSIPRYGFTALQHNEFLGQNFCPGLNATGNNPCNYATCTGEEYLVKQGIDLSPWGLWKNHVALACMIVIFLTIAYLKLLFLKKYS
Excerpt: flow cytometry inhibition of pheophorbide A efflux in ABCG2-transfected HEK293 cells (also S1-M1-80 and H460-MX20) on ATP-binding cassette (ABC) subfamily G member 2 (ABCG2) | TP-3654 inhibited ABCG2-mediated efflux of PhA in ABCG2-transfected R482-HEK293 cells

[2] = target: T1, ATP-binding cassette (ABC) subfamily G member 2 (ABCG2); assay: flow cytometry of ABCG2-mediated efflux in parental and ABCG2-transfected HEK293 cells; assay type: cell-based

IC50 [1] [nM] | SMILES | flow cytometry of ABCG2-mediated efflux in parental and ABCG2-transfected HEK293 [2]
~140 | CC(C)(O)[C@H]1CC[C@H](Nc2ccc3ncc(-c4cccc(C(F)(F)F)c4)n3n2)CC1 [TP-3654] | –
– | C=Cc1c(C)c2cc3nc(c4c5[nH]c(cc6nc(cc1[nH]2)C(C)=C6CC)c(C)c5C(=O)[C@@H]4C(=O)OC)[C@@H](CCC(=O)O)[C@@H]3C [pheophorbide A] | Flow cytometry analysis of PhA accumulation in parental HEK293 cells and ABCG2-transfected R482-HEK293 cells
